Test results taken from patent US10717968B2, “Polymerases for nucleotide analogue incorporation” (Pacific Biosciences of California, Inc., priority 2005, dated 2020).

Key:
Type in all cases: biochemical
[1] = test system: A633dC4P; experiment: Screening: rate with A633dC4P and dA, dG, dTTP; details: for Rate High: 25 μM A633dC4P with 20 μM dA; for Ratio (Low/High): (rate at 5 μM A633dC4P)/(rate at 25 μM A633dC4P), each with 20 μM dA, 1 mM MnCl2, higher ratio = lower Km
[2] = test system: Alexa568-dA4P; experiment: FRET stopped flow assay, branching rate; details: dideoxy-terminated primer, native dATP trap
Procedure: Relative branching rate (dissociation of the analogue without incorporation, i.e., substrate dissociation) was also determined for exemplary recombinant Phi29 polymerases with nucleotide analogue Alexa568-dA4P (also called A568-dA4P), using a FRET stopped flow assay as schematically illustrated in FIG. 8A. In this technique, a template with a FRET donor dye compatible for FRET with the corresponding dye on the nucleotide analogue is employed. The primer has a dideoxy-termination at the 3′ end to prevent incorporation. The analogue is pre-mixed with the enzyme-template-dideoxy primer complex. In the stopped flow apparatus, this preformed complex is rapidly mixed with the corresponding native nucleotide (native dATP, in this example) in excess which serves as a “trap” to prevent rebinding of the analogue after it dissociates. The increase in donor dye fluorescence is monitored as a means of monitoring the dissociation/branching rate of the analogue.

[3] = test system: Alexa532-O-dG4P; experiment: Km and Vmax versus analogue Alexa532-O-dG4P
Procedure: (§1) Km and Vmax were determined for exemplary recombinant Phi29 polymerases and various nucleotide analogues.

[4] = test system: A594-dT4P; experiment: FRET stopped flow assay, rates of binding and product release; details: nucleotide analogue A594-dT4P
Procedure: Rates of binding and product release were determined for exemplary recombinant Phi29 polymerases with nucleotide analogue A594-dT4P using a FRET stopped flow assay as schematically illustrated in FIG. 7A. Results are depicted graphically in FIGS. 7B-D for Phi29 N62D (FIG. 7B), N62D:E375Y (FIG. 7C), and N62D:E375W (FIG. 7D).

[5] = test system: Alexa555-C2-dT4P; experiment: Km and Vmax versus analogue Alexa555-C2-dT4P
Procedure: as §1

[6] = test system: Alexa488-O-dA4P, FAM-Alexa532-O-dG4P, FAM-Alexa594-O-dT4P, Alexa633-O-dC4P; experiment: Screening: rate with set of four nucleotide analogues; details: four analogues at 10 μM each, 1 mM MnCl2
[7] = test system: Alexa633-O-dC4P; experiment: Km and Vmax versus analogue Alexa633-O-dC4P; details: Alexa633-O-dC4P (A633dC4P)
Procedure: as §1

Substance: N62D: E375W: Phi29 polymerase with E375W and N62D mutations
- Rate High [1]: 699.4
- Ratio (Low/High) [1]: 0.677
- Branching Rate [2]: 43 s⁻¹
- Km [3]: 16 µM
- Product Release Rate [4]: 76 s⁻¹
- rates of binding and product release compared with the parent enzyme [4]: increased rates of binding and product release
- Km [5]: 5 µM
- Hz Rate [6]: 19.1 Hz
- Km [7]: 1.8 µM

Substance: N62D: E375Y: Phi29 polymerase with E375Y and N62D mutations
- Rate High [1]: 498.5
- Ratio (Low/High) [1]: 0.694
- Branching Rate [2]: 31 s⁻¹
- Km [3]: 18 µM
- Product Release Rate [4]: 117 s⁻¹
- rates of binding and product release compared with the parent enzyme [4]: increased rates of binding and product release
- Km [5]: 6.6 µM
- Hz Rate [6]: 12.1 Hz
- Km [7]: 2.5 µM

Substance: N62D: N62D Phi29 DNA polymerase, parent enzyme in Tables 4, 6 and 7; tag not stated [reference compound]
- Branching Rate [2]: 90 s⁻¹
- Km [3]: 68 µM
- Product Release Rate [4]: 55 s⁻¹
- Km [5]: 20 µM
- Km [7]: 23 µM
